Test results taken from patent US20230286973A1, “PROTEIN SECRETION INHIBITORS” (KEZAR LIFE SCIENCES, priority 2020, published 2023).

Assays:
[1] = tested on: IL-2-FL/Gaussia Luciferase; test: Dox Induced IL2-FL-Gluc Assay; type: cell-based; conditions: for IC50: 24 hr Dox induction, 293FRT/TO cells, mean, read-out: 24 hr Dox Inducible IL2FLGluc 293FRT/TO: Mean IC50; for 24 hr Dox Inducible IL2FLGluc 293FRT/TO: IL2/PD1: ratio of IL2FLGluc IC50 to PD1ssGluc IC50, '<=>' given where both are I.A.
Summary of the method: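 Flp-In 293 T-REx cells stably carrying doxycycline-inducible full-length IL-2 (aa 1-153) fused at its C-terminus to Gaussia luciferase, selected with hygromycin and blasticidin. Cells were plated the day before, then treated with compounds in DMSO/media containing doxycycline at 37° C, 5% CO2.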

[2] = tested on: PD1-ss+10aa/Gaussia Luciferase; test: Dox-Induced PD1-ss-Gluc Assay; type: cell-based; conditions: 24 hr Dox induction; 293FRT/TO cells; mean; read-out: 24 hr Dox Inducible PD1ssGluc 293FRT/TO: Mean IC50
Summary of the method: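 Compounds were added in DMSO/media with doxycycline and incubated at 37 °C, 5% CO2, on 293 T-REx cells plated one day earlier. These cells stably express, under tetracycline-regulated control, a Gaussia luciferase fused to the PD1 signal peptide plus 10 residues. Structures drawn without stereochemistry were tested as stereoisomer mixtures.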

[3] = Liver Microsome Stability Assay (monkey); conditions: monkey liver microsomes, with NADPH, 1.0 uM compound
Method: (§1) Stability of a compound was assessed in the presence of liver microsomes from various sources—mouse, rat, monkey and human liver microsomes. 1.0 uM compound, 0.4% DMSO in 0.1 M Potassium Phosphate with 1.0 mg/mL liver microsomes, were incubated at 37° C. with or without 1 mM NADPH. The samples were quenched at 0, and 30 minutes.

[4] = Liver Microsome Stability Assay (human); conditions: human liver microsomes, with NADPH, 1.0 uM compound
Method: as §1

[5] = tested on: TNFα-FL/Gaussia Luciferase; test: Dox Induced TNFα-FL-Gluc Assay; type: cell-based; conditions: for IC50: 24 hr Dox induction, 293FRT/TO cells, mean, read-out: 24 hr Dox Inducible TNFaFLGluc 293FRT/TO: Mean IC50; for 24 hr Dox Inducible TNFaFLGluc 293FRT/TO: TNF/PD1: ratio of TNFaFLGluc IC50 to PD1ssGluc IC50, '<=>' given where both are I.A.
Summary of the method: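 Flp-In 293 T-REx cells stably expressing full-length TNFα (aa 1-233) fused at its C-terminus to Gaussia luciferase under tetracycline-regulated control were plated the day before assay. Compound dilutions in DMSO/media containing doxycycline were added and incubated at 37 °C, 5% CO2. Unspecified stereochemistry denotes stereoisomer mixtures.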

[6] = tested on: HER3-ss+4aa/Gaussia Luciferase; test: Dox-Induced Her3-ss-Gluc Assay; type: cell-based; conditions: 24 hr Dox induction; 293FRT/TO cells; mean; read-out: 24 hr Dox Inducible Her3(ss + 4)Gluc 293FRT/TO: Mean IC50
Summary of the method: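 Stable Flp-In 293 T-REx line expressing Gaussia luciferase fused to the HER3 signal sequence plus 4 amino acids under tetracycline-regulated (T-REx) control. Cells plated the day before, then treated with compound dilutions in DMSO/media containing doxycycline and incubated at 37° C., 5% CO2.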

[7] = tested on: multiple myeloma cell line NCI-H929; test: H929 Cell Viability Assay; type: cell-based, human; conditions: Homo sapiens, NCI-H929, 48 h, NCI-H929 cells, Celltiter-Glo
Summary of the method: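 NCI-H929 cells, resuspended in RPMI 1640 with 10% FBS and 2 mM glutamine, were treated with compound dilutions in DMSO/media and incubated 48 hours at 37° C, 5% CO2. Viability was read by CellTiter-Glo luminescence. Compounds drawn without stereochemistry were tested as stereoisomer mixtures.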

[8] = Liver Microsome Stability Assay (mouse); conditions: mouse liver microsomes, with NADPH, 1.0 uM compound
Method: as §1

[9] = tested on: multiple myeloma cell line U266B1; test: U266 Cell Viability Assay; type: cell-based, human; conditions: Homo sapiens, U-266, 48 h, U266B1 cells, Celltiter-Glo
Summary of the method: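 Cells grown in RPMI 1640 with 10% FBS, 2 mM glutamine and penicillin/streptomycin were exposed to compound dilutions in DMSO/media for 48 hours at 37° C., 5% CO2. Viability was read by CellTiter-Glo luminescence. Undefined stereocentres mean data for stereoisomer mixtures.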

[10] = Liver Microsome Stability Assay (rat); conditions: rat liver microsomes, with NADPH, 1.0 uM compound
Method: as §1

Row | Compound | IC50 [1] | 24 hr Dox Inducible IL2FLGluc 293FRT/TO: IL2/PD1 [1] | IC50 [2] | Liver Microsome Stability (Multiple Species): Monkey - % Remaining after 30 min w/NADPH [3] | Liver Microsome Stability (Multiple Species): Human - % Remaining after 30 min w/NADPH [4] | IC50 [5] | 24 hr Dox Inducible TNFaFLGluc 293FRT/TO: TNF/PD1 [5] | IC50 [6] | EC50 [7] | Liver Microsome Stability (Multiple Species): Mouse - % Remaining after 30 min w/NADPH [8] | EC50 [9] | Liver Microsome Stability (Multiple Species): Rat - % Remaining after 30 min w/NADPH [10]
1 | O=C(Nc1nc(CCc2ccc(OC(F)(F)F)cn2)cs1)c1cccn1Cc1ccncc1 [Compound E7, 1-(pyridin-4-ylmethyl)-N-(4-(2-(5-(trifluoromethoxy)pyridin-2-yl)ethyl)thiazol-2-yl)-1H-pyrrole-2-carboxamide] | 1.19 µM | 7.5 | 0.158 µM | 0.23% | 0.1% | 2.76 µM | 17.4 | 0.947 µM | > 25 µM | 0.38% | > 25 µM | 0.28%
2 | O=C(Nc1nc(CCc2ccccn2)cs1)c1cccn1Cc1ccncc1 [Compound E8, N-(4-(2-(pyridin-2-yl)ethyl)thiazol-2-yl)-1-(pyridin-4-ylmethyl)-1H-pyrrole-2-carboxamide] | 5.05 µM | 7.3 | 0.695 µM | 0.02% | 0.01% | > 25 µM | >35.9 | 4.96 µM | > 25 µM | 0.6% | > 25 µM | 2.86%
3 | O=C(Nc1nc(CC2CCCCO2)cs1)c1cccn1Cc1ccncc1 (stereo not drawn) [Compound E9, 1-(pyridin-4-ylmethyl)-N-(4-((tetrahydro-2H-pyran-2-yl)methyl)thiazol-2-yl)-1H-pyrrole-2-carboxamide] | 3.64 µM | 4.7 | 0.775 µM | 2.42% | 0.86% | 19.5 µM | 25.1 | 3.92 µM | > 25 µM | 19% | > 25 µM | 4.69%
4 | O=C(Nc1nc([C@H]2CCCN2c2ccccc2)cs1)c1cccn1CCCc1cccnc1 [Compound E10, (R)-N-(4-(1-phenylpyrrolidin-2-yl)thiazol-2-yl)-1-(3-(pyridin-3-yl)propyl)-1H-pyrrole-2-carboxamide] | 5.41 µM | 0.94 | 5.76 µM | 0.06% | 0.37% | > 25 µM | >4.34 | 4.93 µM | > 25 µM | 0.46% | > 25 µM | 0.39%
5 | O=C(Nc1nc(Cc2ccccn2)cs1)c1cccn1Cc1ccncc1 [Compound E11, N-(4-(pyridin-2-ylmethyl)thiazol-2-yl)-1-(pyridin-4-ylmethyl)-1H-pyrrole-2-carboxamide] | 8.24 µM | 3.8 | 2.18 µM | 1.33% | 0.97% | > 25 µM | >11.4 | 8.17 µM | > 25 µM | 0.36% | > 25 µM | 2.06%
6 | O=C(Nc1nc(CCc2coc(-c3ccccc3)n2)cs1)c1cccn1Cc1ccncc1 [Compound E12, N-(4-(2-(2-phenyloxazol-4-yl)ethyl)thiazol-2-yl)-1-(pyridin-4-ylmethyl)-1H-pyrrole-2-carboxamide] | 0.432 µM | 3.5 | 0.124 µM | 0.19% | 0.45% | 7.89 µM | 63.4 | 0.213 µM | > 25 µM | 0.23% | > 25 µM | 0.83%
7 | CC(c1ccncc1)n1cccc1C(=O)Nc1nc([C@H]2CCCN2c2ccccc2)cs1 (stereo partly drawn) [Compound E13, N-(4-((R)-1-phenylpyrrolidin-2-yl)thiazol-2-yl)-1-(1-(pyridin-4-yl)ethyl)-1H-pyrrole-2-carboxamide] | 0.184 µM | 3.4 | 0.0533 µM | 0.67% | 5.08% | 0.832 µM | 15.6 | 0.114 µM | 5.91 µM | 1.95% | > 25 µM | 10.1%
8 | Cc1ccc(S(=O)(=O)N2CCC[C@@H]2c2csc(NC(=O)c3cccn3Cc3ccncc3)n2)cc1 [Compound E14, (R)-1-(pyridin-4-ylmethyl)-N-(4-(1-tosylpyrrolidin-2-yl)thiazol-2-yl)-1H-pyrrole-2-carboxamide] | 6.62 µM | 1.6 | 4.24 µM | 0.11% | 0.2% | > 25 µM | >5.90 | 20.7 µM | > 25 µM | 0.1% | > 25 µM | 0.11%
